Columns and labels:
[1] = test system: E. coli thyA folA KO + Pv mt; assay: microbe, parasite or virus in culture; format: cell-based; details: Escherichia coli; host expressing P. vivax sp21 double mutant DHFR-TS; 6 hours, OD 600 nm
[2] = test system: E. coli thyA folA KO + Tg mt; assay: microbe, parasite or virus in culture; format: cell-based; details: Escherichia coli; host expressing Toxoplasma gondii double mutant DHFR-TS; 6 hours, OD 600 nm
[3] = test system: E. coli thyA folA KO + Tg wt; assay: microbe, parasite or virus in culture; format: cell-based; details: Escherichia coli; host expressing Toxoplasma gondii wildtype DHFR-TS; 6 hours, OD 600 nm
[4] = test system: E. coli thyA folA KO + Pv wt; assay: microbe, parasite or virus in culture; format: cell-based; details: Escherichia coli; host expressing P. vivax wildtype DHFR-TS; 6 hours, OD 600 nm
[5] = target: DHFR-TS from Plasmodium malariae (wildtype) (Plasmodium malariae, UniProt A0A1D3JLL1); assay: In vitro biochemical enzyme inhibition assay, purified DHFR-TS; details: purified P. malariae wildtype DHFR-TS
[6] = test system: E. coli thyA folA KO + Pf TM4; assay: microbe, parasite or virus in culture; format: cell-based; details: Escherichia coli; host expressing P. falciparum TM4 DHFR-TS; minimal media with ampicillin, 37 degrees Celsius, 6 hours, OD 600 nm
[7] = test system: E. coli thyA folA KO + Pm wt; assay: microbe, parasite or virus in culture; format: cell-based; details: Escherichia coli; host expressing P. malariae wildtype DHFR-TS; 6 hours, OD 600 nm
[8] = test system: E. coli thyA folA KO + Pf K1; assay: microbe, parasite or virus in culture; format: cell-based; details: Escherichia coli; host expressing P. falciparum K1 DHFR-TS; minimal media with ampicillin, 37 degrees Celsius, 6 hours, OD 600 nm
[9] = test system: E. coli thyA folA KO + Tb wt; assay: microbe, parasite or virus in culture; format: cell-based; details: Escherichia coli, 6 h
[10] = test system: E. coli thyA folA KO + Lm wt; assay: microbe, parasite or virus in culture; format: cell-based; details: Escherichia coli; host expressing Leishmania major DHFR-TS; 6 hours, OD 600 nm

Chain of DHFR-TS from Plasmodium malariae (wildtype) (A0A1D3JLL1 entry or part of it): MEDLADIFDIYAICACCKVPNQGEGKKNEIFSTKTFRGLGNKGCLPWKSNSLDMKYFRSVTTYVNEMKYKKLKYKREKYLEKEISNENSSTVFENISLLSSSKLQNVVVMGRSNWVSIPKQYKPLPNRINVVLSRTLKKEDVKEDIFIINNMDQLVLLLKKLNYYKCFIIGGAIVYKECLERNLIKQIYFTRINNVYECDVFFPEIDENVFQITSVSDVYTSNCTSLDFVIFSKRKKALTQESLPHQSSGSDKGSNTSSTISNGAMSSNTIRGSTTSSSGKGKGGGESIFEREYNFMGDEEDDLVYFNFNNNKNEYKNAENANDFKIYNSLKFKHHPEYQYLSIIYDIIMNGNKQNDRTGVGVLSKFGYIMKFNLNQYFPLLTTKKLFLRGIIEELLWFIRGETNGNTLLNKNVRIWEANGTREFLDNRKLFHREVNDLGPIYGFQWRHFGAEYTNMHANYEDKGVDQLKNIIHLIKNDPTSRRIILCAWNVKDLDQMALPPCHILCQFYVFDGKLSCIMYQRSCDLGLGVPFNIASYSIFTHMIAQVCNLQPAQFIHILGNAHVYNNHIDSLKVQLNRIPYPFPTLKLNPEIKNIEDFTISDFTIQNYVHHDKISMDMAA

`CCc1nc(N)nc(N)c1-c1ccc(Cl)cc1` [Pyrimethamine] showed an IC50 [1] greater than 100 µM, an IC50 [2] greater than 100 µM and an IC50 [3] greater than 100 µM. For the same compound, the IC50 [4] was 3.08 ± 0.33 µM, the Ki [5] was 0.00054 ± 6e-05 µM and the IC50 [6] was 0.07 ± 0.01 µM. For the same compound, the IC50 [7] was 0.77 ± 0.22 µM, the IC50 [8] was 31.93 ± 0.16 µM and the IC50 [9] was greater than 100 µM. For the same compound, the IC50 [10] was greater than 100 µM.

Source: patent US9611503B2, “Escherichia coli cell line with thyA knockout and folA knockout” (priority 2011, dated 2017)
